Measured values published in patent US20250296938A1, “Compounds that Interact with the Ras Superfamily for the Treatment of Cancers, Inflammatory Diseases, Rasopathies, and Fibrotic Disease” (SHY Therapeutics, LLC, priority 2018, published 2025).

Columns and labels:
IL-6 = assay: Mouse IL6 quantification assay, LPS-stimulated RAW 264.7 macrophages; type: cell-based; settings: RAW264.7, 30 μM, LPS-stimulated RAW 264.7 macrophages
Experimental: (§1) Cell lines: Abelson murine leukemia virus transformed macrophage cell line RAW 264.7 was purchased from ATCC and grown in complete DMEM-High Glucose medium supplemented with penicillin (100 U/mL), streptomycin (100 μg/mL), and 10% heat-inactivated FBS at 37° C. in a humidified incubator with 5% CO2.
(§2) Method: Cells were plated at 25000-40000 cells/well density in a 96-well plate. After a 3-hour incubation, macrophages were starved with DMEM plus 0.5% FBS overnight. The next day the small molecules to be tested were added to the cells in the final concentration of 30 μM (with 0.3% DMSO) 3 hours prior to LPS stimulation (100 ng/ml). After LPS stimulation cells were incubated at 37° C. for 16 h. Alternatively, compounds were also tested at 10 μM and LPS (100 ng/ml) was added concurrently and incubated 5 hours at 37° C. At the end of the incubation periods, culture medium was collected and production of LPS-induced TNF-α and IL-6 cytokine was measured using ELISA detection kits.
(§3) Sandwich ELISA: The ELISA Immunoassays Quantikine Mouse TNF-alpha (catalog number MTA00B) and IL6 (catalog number M6000B) were purchased from R&D Systems Inc., Minneapolis, MN. These 4.5 hours solid phase ELISAs were used to measure mouse TNF-α or IL-6 levels in macrophages culture supernatants. Assays were executed according to the manufacturer specifications.

TNF-α = assay: Mouse TNF alpha quantification assay, LPS-stimulated RAW 264.7 macrophages; type: cell-based; settings: RAW264.7, 30 μM, LPS-stimulated RAW 264.7 macrophages
Experimental: as §1, §2, §3

AKT phosphorylation = assay: Western AKT cell-based phosphorylation assay, PANC-1; settings: Homo sapiens
Experimental: Human tumor-derived pancreatic cancer cell line Panc-1 was purchased from American Type Culture Collection and grown in complete DMEM-High Glucose supplemented with penicillin (100 U/mL), streptomycin (100 μg/mL), and 10% heat-inactivated FBS at 37° C. in a humidified incubator with 5% CO2.
Method: Cells were plated at 350000 cells/well density in a 12-well plate, allowed 3 hours to adhere to the plate, then starved in the appropriate medium in the presence of 0.5% FBS overnight. The small molecules to be tested were added to the cells in the final concentration of 10 μM in the presence of 0.3% DMSO for 6 hours incubation at 37° C. Next, cells were stimulated with 1.5 ng/ml EGF for 15 minutes then cells were lysed with lysis buffer containing 1% Triton X-100, EDTA, and Halt™ Protease & Phosphatase Inhibitor Cocktail (Thermo Scientific). Protein concentration was assessed by BCA protein assay (Thermo Scientific). Phosphorylation level of Akt was determined by western blot.
Western blot protocol: Equal amounts of protein (15-50 μg) were separated by SDS-PAGE and transferred to nitrocellulose membranes (Invitrogen by Thermo Fisher Scientific). The membrane was stained with Ponceau S Stain (Boston BioProducts) to verify uniform protein loading. Membranes were blocked with 10% milk and phosphorylation levels of Akt were assessed by incubating overnight at 4° C. with anti-phospho-Akt (Ser473) antibody (Cell Signaling) followed by HRP-conjugated secondary antibody (Jackson Immunoresearch, West Grove, PA). Bands were incubated in Amersham ECL Prime Western Blotting Detection Reagent (GE Healthcare) and visualized using the ChemiDoc MP imaging system (Bio-Rad).

MAPK phosphorylation = assay: MAPK cell-based phosphorylation assay (ELISA or Western), PANC-1; settings: Homo sapiens, 10 μM
Outline: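 Serum-starved (0.5% FBS overnight) cells given compound at 10 μM or serial dilutions (0.3% DMSO) for 6 h at 37 °C, then 1.5 ng/mL EGF for 15 min. Phospho-MAPK read by fixed-cell ELISA (fluorescence, 595 nm) or by Western blot of lysates with anti-phospho-p44/42 (Thr202/Tyr204).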

[1] = 6 hours, EGF stimulation, PANC-1

SMILES | inhibition at 10 µM (AKT phosphorylation; PANC-1 (Table 4C)) [%] | inhibition at 10 µM (MAPK phosphorylation; PANC-1 (Table 4C)) [%] | inhibition at 10 µM (AKT phosphorylation; [1]) [%] | inhibition at 10 µM (MAPK phosphorylation; [1]) [%] | also measured
Cn1ccc(-c2sc3nc(-c4nccn4C)nc(NC4CCOCC4)c3c2-c2ccccc2)n1 [drawing 681] |  |  |  |  | inhibition at 30 µM (IL-6): 26 to 50%; inhibition at 30 µM (TNF-α): 1 to 25%
COc1ncccc1-c1sc2nc(-c3nccn3C)nc(N3CCC(OC)C3)c2c1-c1ccccc1 (stereo not shown) [drawing 706] |  |  |  |  | inhibition at 30 µM (IL-6): 76 to 100%; inhibition at 30 µM (TNF-α): 76 to 100%
COC1CCN(c2nc(-c3nccn3C)nc3sc(-c4ccnn4C)c(-c4ccccc4)c23)C1 (stereo not shown) [drawing 703] |  |  |  |  | inhibition at 30 µM (IL-6): 26 to 50%; inhibition at 30 µM (TNF-α): 0%
CC(C)NC(=O)c1nc(-c2nccn2C)nc(O)c1O [drawing 737] |  |  |  |  | inhibition at 30 µM (IL-6): 0%; inhibition at 30 µM (TNF-α): 1 to 25%
CC(C)COc1ccc(-c2csc3c(O)nc(-c4nccn4Cc4ccccn4)nc23)cn1 [drawing 499] | 0 | 76 to 100 |  |  | 
COC1CCN(c2nc(-c3nccn3C)nc3sc(-c4cnn(C)c4)c(-c4ccccc4)c23)C1 (stereo not shown) [drawing 435] |  |  | 0 | 1 to 25 | 
COc1nscc1-c1sc2nc(-c3nccn3C)nc(N3CCC(OC)C3)c2c1-c1ccccc1 (stereo not shown) [drawing 439] |  |  | 0 | 51 to 75 | 
COCCN(C)C(=O)c1nc(-c2ccccn2)nc(O)c1O [drawing 460] |  |  | 0 | 0 | 
CC(C)CN(C)C(=O)c1nc(-c2ccccn2)nc(O)c1O [drawing 458] |  |  | 0 | 0 | 
COC1CCN(c2nc(-c3nccn3C)nc3sc(-c4cnc(C5CC5)o4)c(-c4ccccc4)c23)C1 (stereo not shown) [drawing 432] |  |  | 0 | 51 to 75 | 
COc1cccc(Cn2ccnc2-c2nc(O)c3scc(-c4ccc(OCC(C)C)nc4)c3n2)c1 [drawing 500] | 0 | 76 to 100 |  |  | 
CCOc1cccc(Nc2nc(-c3ccccn3)nc(O)c2OC)c1 [drawing 482] | 0 | 0 |  |  | 
COc1c(O)nc(-c2ccccn2)nc1Oc1ccc(C(=O)N(C)C)cc1 [drawing 479] | 0 | 0 |  |  | 
COCCNC(=O)c1sc2nc(-c3nccn3C)nc(N[C@H]3C[C@@H](OC)C3)c2c1-c1ccccc1 [drawing 521] | 0 | 0 |  |  | 
Cc1c(-c2ccn(C)n2)sc2nc(-c3nccn3C)nc(NCCOC(=O)N(C)C)c12 [drawing 518] | 0 | 0 |  |  | 
COCCn1cc(Nc2nc(-c3ccccn3)nc(OC)c2OC)cn1 [drawing 470] |  |  | 0 | 0 | 
COCCCNc1nc(-c2nccn2C)nc2sc(-c3ccn(C)n3)c(-c3ccc(OC)cc3)c12 [drawing 411] |  |  | 0 | 0 | 
Oc1nc(-c2cn3ccccc3n2)nc2c(-c3ccccn3)csc12 [drawing 389] |  |  | 0 | 26 to 50 | 
CO[C@H]1C[C@@H](Nc2nc(-c3nccn3C)nc3sc(-c4ccn(C)n4)c(C)c23)C1 [drawing 514] | 0 | 76 to 100 |  |  | 
CO[C@H]1C[C@@H](Nc2nc(-c3nccn3C)nc3sc(-c4ccn(C)n4)c(-c4ccccc4)c23)C1 [drawing 505] | 76 to 100 | 76 to 100 |  |  | 
COC1CCN(c2nc(-c3nccn3C)nc3sc(Br)c(-c4ccccc4)c23)C1 (stereo not shown) [drawing 441] |  |  | 0 | 26 to 50 | 
COc1cccc(-c2sc3nc(-c4nccn4C)nc(N[C@@H]4CC[C@H](OC)C4)c3c2C)c1F [drawing 494] | 0 | 76 to 100 |  |  | 
Cn1ccc(-c2sc3nc(-c4nccn4C)nc(O)c3c2-c2ccccc2)n1 [drawing 504] | 0 | 0 |  |  | 
COC1CCN(c2nc(-c3nccn3C)nc3sc(-c4ccc(N)nc4C)c(-c4ccccc4)c23)C1 (stereo not shown) [drawing 437] |  |  | 0 | 26 to 50 | 

SMILES | inhibition at 10 µM (AKT phosphorylation; PANC-1 (Table 4C)) [%] | inhibition at 10 µM (MAPK phosphorylation; PANC-1 (Table 4C)) [%] | inhibition at 10 µM (AKT phosphorylation; [1]) [%] | inhibition at 10 µM (MAPK phosphorylation; [1]) [%] | also measured
CO[C@H]1CC[C@@H](Nc2nc(-c3nccn3C)nc3sc(-c4cccc5[nH]ncc45)c(C)c23)C1 | 0 | 76 to 100 |  |  | 
COCCn1cc(-c2sc3nc(-c4nccn4C)nc(N4CCC(OC)C4)c3c2-c2ccccc2)cn1 (stereo not shown) [drawing 433] |  |  | 0 | 51 to 75 | 
COc1c(F)cccc1-c1sc2nc(-c3nccn3C)nc(NC3CCC(OC)C3)c2c1-c1ccccc1 (stereo not shown) [drawing 486] | 76 to 100 | 76 to 100 |  |  | 
O=C(NCc1ccccc1)c1nc(-c2ccccn2)nc(O)c1O [drawing 455] |  |  | 0 | 1 to 25 | 
COc1cccc(Cn2ccnc2-c2nc(O)c3scc(-c4ccccn4)c3n2)c1 [drawing 393] |  |  | 0 | 51 to 75 | 
Oc1nc(-c2cn3cccnc3n2)nc2c(-c3ccccn3)csc12 [drawing 397] |  |  | 0 | 0 | 
CO[C@H]1C[C@@H](Nc2nc(-c3ncc[nH]3)nc3sc(-c4ccn(C)n4)c(-c4ccccc4)c23)C1 [drawing 510] | 0 | 0 |  |  | 
COc1cccc(-c2sc3nc(-c4nccn4C)nc(N4CCC(OC)C4)c3c2-c2ccccc2)c1F (stereo not shown) [drawing 444] |  |  | 76 to 100 | 76 to 100 | 
Cn1ccnc1-c1nc(O)c(O)c(C(=O)NC2CCCC2)n1 [drawing 465] |  |  | 0 | 0 | 
COCCNc1nc(-c2cn(C)cn2)nc2sc(-c3cc(OC)ccc3Cl)c(-c3ccc(OC)cc3)c12 [drawing 424] |  |  | 76 to 100 | 76 to 100 | 
COc1cccc(-c2sc3nc(-c4nccn4C)nc(N4CCC(OC)C4)c3c2-c2cscn2)c1 (stereo not shown) [drawing 417] |  |  | 0 | 0 | 
COCCNc1nc(-c2cn(C)cn2)nc2sc(-c3cccc(OC)c3Cl)c(-c3ccc(OC)cc3)c12 [drawing 423] |  |  | 0 | 76 to 100 | 
COc1cccc(Oc2nc(-c3ccccn3)nc(O)c2OC)c1 [drawing 448] |  |  | 0 | 0 | 
Cn1ccnc1-c1nc(O)c(O)c(C(=O)N2CCCCC2)n1 [drawing 466] |  |  | 0 | 0 | 
COC1CCN(c2nc(-c3nccn3C)nc3sc(-c4ccncc4C)c(-c4ccccc4)c23)C1 (stereo not shown) [drawing 434] |  |  | 0 | 0 | 
COCCn1ccnc1-c1nc(O)c2scc(-c3ccc(OCC(C)C)nc3)c2n1 [drawing 498] | 0 | 76 to 100 |  |  | 
Cn1ccnc1-c1nc(O)c(O)c(C(=O)NC2CCC2)n1 [drawing 467] |  |  | 0 | 0 | 
COc1nc(-c2ccccn2)nc(Nc2cnn(C)c2)c1OC [drawing 469] |  |  | 0 | 0 | 
COc1ccc(-c2c(-c3ccn(C)n3)sc3nc(-c4nccn4C)nc(N4CCC(OC)C4)c23)cc1 (stereo not shown) [drawing 413] |  |  | 0 | 1 to 25 | 
CCN(CC)C(=O)c1nc(-c2nccn2C)nc(O)c1O [drawing 463] |  |  | 0 | 0 | 
COc1c(O)nc(-c2ccccn2)nc1Nc1ccccc1 [drawing 480] | 0 | 0 |  |  | 
COC1CCC(Nc2nc(-c3nccn3C)nc3sc(-c4cccc5[nH]ncc45)c(C)c23)C1 (stereo not shown) [drawing 495] | 76 to 100 | 76 to 100 |  |  | 
CO[C@H]1CC[C@@H](Nc2nc(-c3nccn3C)nc3sc(-c4ccn(C)n4)c(C)c23)C1 [drawing 515] | 0 | 0 |  |  | 
